Patent US10849864B2, “Combinations and methods for the treatment and/or prevention of fungal infections” (Novan, Inc., priority 2015, dated 2020)
Counter-ions that a name gives are not always drawn.

System: Tricophyton rubrum (ATCC #28188)
Experiment: MIC evaluation of individual test materials (Macrodilution Broth Method, Phase I)
Assay type: cell-based
Settings: Trichophyton rubrum, ATCC28188; test material alone; T. rubrum inoculum 1.775 × 10^3 CFU/mL per tube; read-out: Minimum Inhibitory Concentration (MIC) (as product concentration)
Procedure: The purpose of this study was to evaluate the synergistic in vitro interactions of one drug pair when challenged with Tricophyton rubrum (ATCC #28188).
A minimum inhibitory concentration (MIC) evaluation was performed for each test material versus T. rubrum using modifications of the Macrodilution Broth Method outlined in the CLSI (clinical laboratory standards institute) Document M07-A9: Methods for dilution antimicrobial susceptibility tests for bacteria that grow aerobically, 9th edition. The test materials were terbinafine hydrochloride and Nitricil™ NVN1, which is a NO-releasing diazeniumdiolate-functionalized co-condensed silica from Novan, Inc.
The challenge strain of T. rubrum was exposed to a series of doubling dilutions of each test material. […]
An initial population of T. rubrum was prepared containing approximately 10^3 CFU (colony forming units)/mL in appropriate fungal growth media (RPMI). This initial population density was precisely determined by preparing ten-fold dilutions and plating them on the appropriate solid fungal growth media for colony enumeration. […] Following incubation, the colonies were manually counted to determine the precise number of colonies present in the initial population. […]
The tubes were visually assessed on the basis of turbidity in order to determine fungal growth.

- MIC: 0.012 µg/mL
SMILES: CN(C/C=C/C#CC(C)(C)C)Cc1cccc2ccccc12 [Terbinafine hydrochloride, terbinafine hydrochloride]
